Data from PubChem BioAssay AID434938 (Broad Institute, 2010).
Results filed as inconclusive are left out. Active and inactive are the calls of the source.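 How the source made its calls: active means EC50 no greater than ten times the top concentration tested; inconclusive means flat fit with inhibition between 30% and 70%, or an invalid poor-quality fit; inactive means EC50 beyond ten times the top concentration.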

Each molecule was assayed on S. cerevisiae GRE-lacZ reporter, Hsp90 function, luminescence (assay: loss of Hsp90-dependent reporter luminescence – S. cerevisiae, mechanism study for C. albicans Hsp90 inhibitor project, SAR follow-up (AID 434938)).

Structure (SMILES)	EC50
O=C(Nc1nnc(SCc2ccc(Cl)cc2)s1)c1ccc2ccccc2n1	> 26 µM (inactive)
CCCC(=O)NC(c1ccccc1)c1ccc2cccnc2c1O (centres undefined)	> 26 µM (inactive)
CC(C)COCc1ccc(O)c2ncccc12	> 26 µM (inactive)
Clc1ccc2c(c1)C(c1cccs1)=NNC(c1cccnc1)=N2	26.7 µM
Cc1ccc(C(=O)Nc2cccc(-c3cn4ccccc4n3)c2)cc1	> 26 µM (inactive)
O=C(Nc1nnc(-c2ccc3c(c2)CCCC3)o1)c1ccc(Cl)cc1Cl	2.16 µM
Cc1oc2c(F)c(F)c(F)c(F)c2c1S(=O)(=O)Nc1cccc(C(F)(F)F)c1	8.89 µM
COc1ccc(-n2nc(C(=O)NCC(=O)N3CCN(c4ccccc4)CC3)c3ccccc3c2=O)c(OC)c1	> 26 µM (inactive)
O=C(Nc1sc2c(c1C(=O)c1ccc(Cl)cc1)CCCC2)c1cccnc1	15.1 µM
O=C(Nc1nc(-c2ccccn2)cs1)c1ccc(Br)s1	4.74 µM
COc1ccc(-c2nnc(NC(=O)c3ccc(F)cc3)o2)cc1	> 26 µM (inactive)
O=c1c2cc(Br)ccc2nc(-c2cccc(C(F)(F)F)c2)n1O	10.2 µM
CCOC(=O)c1c(-c2ccccc2Cl)cn2ccccc12	16.5 µM
CCc1ccc2c(c1)/C(=C/C(=O)c1cccs1)C(=O)N2	2.91 µM
Cc1ccc(Nc2nc(N)c([N+](=O)[O-])c(N3CCC(C)CC3)n2)cc1C	9.91 µM
Cc1ccc(/C=C/C(=O)c2ccccc(=O)c2O)cc1C	8.43 µM
O=C(Nc1nnc(CCc2ccccc2)s1)c1ccco1	> 26 µM (inactive)
O=C(Oc1c(Cl)cc(Cl)c2cccnc12)c1cccs1	12 µM
Cc1ccc(C(=O)c2coc3c2C(=O)C(=O)c2ccccc2-3)cc1	7.66 µM
